According to PMC9769502 (Microbiology Spectrum, 2022):
No end group written: not given here.

Test system: THP-1 macrophages
Assay: Cytotoxicity against THP-1 macrophages (CellTiter-Blue)
Type: cell-based, human
Conditions: not given
Procedure: THP-1 (human acute monocytic leukemia-derived) host macrophages were cultured in RPMI 1640 supplemented with 10% FCS and a penicillin-streptomycin antibiotic solution (10,000 U/mL penicillin, 10,000 μg/mL streptomycin) at 37°C with 5% CO2. THP-1 cells were incubated with 0.25 μM phorbol 12-myristate […] (PMA) for 48 h to differentiate into mature macrophages. Differentiated macrophages were seeded into 96-well plates at 5 × 10^6 cells/mL and incubated for 48 h in the presence of 20 μM antimicrobial peptides along with the appropriate solvent controls. Cell viability assays were conducted using CellTiter-Blue (Promega), based on resazurin reduction. After the 48-h incubation period, CellTiter-Blue reagent was added to cells for 4 h at 37°C, and fluorescence was measured (555-nm excitation/580-nm emission) using a FlexStation 3 benchtop multimode reader (Molecular Devices). Each assay was performed in triplicate. The CC50 values were calculated by nonlinear regression analysis using GraphPad Prism 9.0 for Windows.

Row | Sequence | THP-1 macrophage CC50
1 | AGKETIRQFLKKKIQEGKKRATIWW [Syn-larvacin-68] | < 20 µM
2 | AGAQRLTKELLEYLRKFWKIARKAW [Syn-xiamencin-23] | < 20 µM
3 | AGSERIAKELKKYIKKGKKWIRAAW [Syn-enterocin-64] | < 20 µM
4 | AGKETIFWRLKKKIWEKGKRATIAW [Syn-larvacin-51] | < 20 µM
5 | AGKETIFQRLKKKIQEKWKRATIAW [Syn-larvacin-43] | < 20 µM
6 | AGKETIRQYLKNEIKKKGRKAVIWW [Syn-safencin-81] | < 20 µM
7 | AGKETIRQYWKNKIKKKGRKAVIAW [Syn-safencin-35] | < 20 µM
8 | AGRQALTKYLLEELRKRWKKAFIAW [Syn-xiamencin-20] | < 20 µM
9 | AGKEWIFQRLKKKIQEKGKRATIAW [Syn-larvacin-19] | < 20 µM
10 | AGRQWLTLELKEYLRKRGKKAFIAW [Syn-xiamencin-51] | < 20 µM
11 | AGKETIRQFLKKKIQEKGKIAKRAW [Syn-larvacin-94] | < 20 µM
12 | AWKKTIRQYLKNKIKKKWRKAVIAW [Syn-safencin-92] | < 20 µM
13 | AGKKTIRQYLKNKWKKKGRKAVIAW [Syn-safencin-44] | < 20 µM
14 | AWKKTIRQYLKNEIKKKGRKAVIAW [Syn-safencin-18] | < 20 µM
15 | AGANRLWKELLEYLRKFGKIARKAW [Syn-xiamencin-48] | < 20 µM
16 | WGKETIFQRLKKKIQEKGKRATIAW [Syn-larvacin-11] | below 20 μM
17 | WGTEKIRQFLKKKIQEKGKRATIAW [Syn-larvacin-10] | below 20 μM
18 | AGKEKWRKKLKNEIKKKGRKAVIAW [Syn-safencin-32] | < 20 µM
19 | AGKKTIRQYWKNKIKKKGRKAVIAW [Syn-safencin-36] | < 20 µM
20 | AGRQWLTLYLKEELRKRGKIAFKAW [Syn-xiamencin-54] | < 20 µM
21 | WGKETIRKYLKNEIKKKGRKAVIAW [Syn-safencin-14] | below 20 μM
22 | AGKETIRQFLKKKIQEKGKIATRWW [Syn-larvacin-70] | < 20 µM
23 | AGKKTIRQYLKNEIKKKGRKAWIAW [Syn-safencin 66] | > 20 µM
24 | AGKETIRQFLKKRIQEKGKRAKIAW [Syn-larvacin-93] | < 20 µM
25 | AGKETIRQFLKKKIQEKGKRATIWW [Syn-larvacin-65] | < 20 µM

Row | Sequence | THP-1 macrophage CC50
26 | AGKETIRQYLKNEIKKKGRKAVWAW [Syn-safencin 73] | > 20 µM
27 | AGRQWLTLYLKEELRKFGKKARIAW [Syn-xiamencin-53] | < 20 µM
28 | AGTEKIFQRLKKTIQEGKKIAKRAW [Syn-larvacin-7] | below 20 μM
29 | AGRQALTLYLKEELRKRGKKWFIAW [Syn-xiamencin-33] | < 20 µM
30 | AGKETIRQYLKNKWKKKGRKAVIAW [Syn-safencin-43] | < 20 µM
31 | AGRQALTLYLKEELRKRWKIAFKAW [Syn-xiamencin-22] | < 20 µM
32 | AGKETIRKYLKNEIKKKGRKAVWAW [Syn-safencin 78] | > 20 µM
33 | WGKETIRQFLKKKIQEKGKIATRAW [Syn-larvacin 14] | > 20 µM
34 | AGRQALWLYLKEELRKFGKKARIAW [Syn-xiamencin-45] | < 20 µM
35 | AGRQALTLELKEYLRKRWKKAFIAW [Syn-xiamencin-19] | < 20 µM
36 | AGRQALTKYLLEELRKRGKKWFIAW [Syn-xiamencin-36] | < 20 µM
37 | WGKETIRQYLKNKIKKKGRKAVIAW [Syn-safencin-11] | below 20 μM
38 | AGKEKIRKKLKNEWKKKGRKAVIAW [Syn-safencin-48] | < 20 µM
39 | AGKETIRQKWKNEIKKKGRKAVIAW [Syn-safencin-39] | < 20 µM
40 | AGKEKIRKKWKNEIKKKGRKAVIAW [Syn-safencin-40] | < 20 µM
41 | AWAQRLTKELLEYLRKFGKIARKAW [Syn-xiamencin-31] | < 20 µM
42 | AGRQALWKYLLEELRKRGKKAFIAW [Syn-xiamencin-44] | < 20 µM
43 | AGKETIRQYLKNKIKKKWRKAVIAW [Syn-safencin-51] | < 20 µM
44 | WGKKTIRQYLKNEIKKKGRKAVIAW [Syn-safencin-10] | below 20 μM
45 | AGKETIRWFLKKKIWEGKKRATIAW [Syn-larvacin-52] | < 20 µM
46 | AGKKTIRQYLKNEIKKKGRKAVWAW [Syn-safencin-74] | < 20 µM
47 | AWKETIRQFLKKTIQEKGKRAKIAW [Syn-larvacin-37] | < 20 µM
48 | AGAQRLTKELLEYLRKFGKIWRKAW [Syn-xiamencin-39] | < 20 µM
49 | AGKETIRQFLKKTIQEKGKRAKIWW [Syn-larvacin 69] | > 20 µM

Same assay, conditions: 48 h

Row | Sequence | THP-1 macrophage CC50 [µM]
50 | AGKKTIRQYLKNEIKKKGRKAWIAW [Syn-safencin 66] | >20
51 | AGKETIRQYLKNEIKKKGRKAVWAW [Syn-safencin 73] | >20
52 | AGKETIRKYLKNEIKKKGRKAVWAW [Syn-safencin 78] | >20
53 | WGKETIRQFLKKKIQEKGKIATRAW [Syn-larvacin 14] | >20
54 | AGKETIRQFLKKTIQEKGKRAKIWW [Syn-larvacin 69] | >20

Test system: Leishmania donovani axenic amastigotes
Assay: not given
Conditions: 48 h
Procedure: We utilized a previously developed high-throughput screening assay using transgenic axenic amastigotes expressing a red fluorescent protein, mCherry. Changes in mCherry fluorescence were normalized to 50 μM miltefosine in order to quantify parasite inhibition ([52]). In total, 5 scaffold 25-mer peptides and 475 synthetic 25-mer peptide variants were screened (Fig. 1). […] The assay was repeated, and the average percent parasite killing was determined.
Axenic amastigotes were differentiated as described previously ([69]).
Axenic amastigotes were differentiated as described previously ([69]); briefly, transgenic L. donovani promastigotes expressing mCherry were differentiated by pH and temperature shifts. Amastigotes were seeded into 96-well plates at 5 × 10^6 cells/mL and incubated for 48 h in the presence of decreasing drug concentrations, starting at 20 μM, along with the appropriate solvent controls. Fluorescence was monitored (587-nm excitation/610-nm emission) over 48 h using a FlexStation 3 benchtop multimode reader (Molecular Devices). […] Thus, changes in mCherry fluorescence were normalized to the 50 μM miltefosine control in order to quantify parasite inhibition. Each assay was performed in triplicate. The IC50 values were calculated by nonlinear regression analysis using GraphPad Prism 9.0 for Windows.

Row | Sequence | IC50 [µM]
55 | AGKKTIRQYLKNEIKKKGRKAWIAW [Syn-safencin 66] | 3.64 ± 0.1
56 | AGKETIRQYLKNEIKKKGRKAVWAW [Syn-safencin 73] | 0.35 ± 0.08
57 | AGKETIRKYLKNEIKKKGRKAVWAW [Syn-safencin 78] | 0.94 ± 0.14
58 | WGKETIRQFLKKKIQEKGKIATRAW [Syn-larvacin 14] | 3.89 ± 0.1
59 | AGKETIRQFLKKTIQEKGKRAKIWW [Syn-larvacin 69] | 4.14 ± 0.11

Same assay, conditions: read-out: Axenic amastigotes Mean IC50 ± SD

Row | Sequence | IC50 [µM]
60 | AGANRLWKELLEYLRKFGKIARKAW [Syn-xiamencin-48] | 2.18
61 | AGRQALWLYLKEELRKFGKKARIAW [Syn-xiamencin-45] | 6.13
62 | AGRQALTKYLLEELRKRGKKWFIAW [Syn-xiamencin-36] | 1.52
63 | AGRQALWKYLLEELRKRGKKAFIAW [Syn-xiamencin-44] | 1.18
64 | AGAQRLTKELLEYLRKFGKIWRKAW [Syn-xiamencin-39] | 6.81

Same assay, conditions: read-out: Axenic amastigotes Mean IC50 ± SD; L. donovani mCherry axenic amastigotes, 48 h, fluorescence normalized to 50 μM miltefosine; highest concentration 20 μM; mean of three replicates

Row | Sequence | IC50 [µM]
65 | AGKETIRQFLKKKIQEGKKRATIWW [Syn-larvacin-68] | 1.31
66 | AGAQRLTKELLEYLRKFWKIARKAW [Syn-xiamencin-23] | 1.14
67 | AGSERIAKELKKYIKKGKKWIRAAW [Syn-enterocin-64] | 0.42
68 | AGKETIFWRLKKKIWEKGKRATIAW [Syn-larvacin-51] | 0.42
69 | AGKETIFQRLKKKIQEKWKRATIAW [Syn-larvacin-43] | 0.22
70 | AGKETIRQYLKNEIKKKGRKAVIWW [Syn-safencin-81] | 3.15
71 | AGKETIRQYWKNKIKKKGRKAVIAW [Syn-safencin-35] | 0.29
72 | AGRQALTKYLLEELRKRWKKAFIAW [Syn-xiamencin-20] | 0.47
73 | AGKEWIFQRLKKKIQEKGKRATIAW [Syn-larvacin-19] | 0.73
74 | AGRQWLTLELKEYLRKRGKKAFIAW [Syn-xiamencin-51] | 3.66
75 | AGKETIRQFLKKKIQEKGKIAKRAW [Syn-larvacin-94] | 18.2
76 | AWKKTIRQYLKNKIKKKWRKAVIAW [Syn-safencin-92] | 0.9
77 | AGKKTIRQYLKNKWKKKGRKAVIAW [Syn-safencin-44] | 0.63
78 | AWKKTIRQYLKNEIKKKGRKAVIAW [Syn-safencin-18] | 7.96
79 | WGKETIFQRLKKKIQEKGKRATIAW [Syn-larvacin-11] | 0.66
80 | WGTEKIRQFLKKKIQEKGKRATIAW [Syn-larvacin-10] | 0.27
81 | AGKEKWRKKLKNEIKKKGRKAVIAW [Syn-safencin-32] | 4.62
82 | AGKKTIRQYWKNKIKKKGRKAVIAW [Syn-safencin-36] | 1.29
83 | AGRQWLTLYLKEELRKRGKIAFKAW [Syn-xiamencin-54] | 7.79
84 | WGKETIRKYLKNEIKKKGRKAVIAW [Syn-safencin-14] | 0.67

Row | Sequence | IC50 [µM]
85 | AGKETIRQFLKKKIQEKGKIATRWW [Syn-larvacin-70] | 0.3
86 | AGKETIRQFLKKRIQEKGKRAKIAW [Syn-larvacin-93] | 2.46
87 | AGKETIRQFLKKKIQEKGKRATIWW [Syn-larvacin-65] | 0.31
88 | AGRQWLTLYLKEELRKFGKKARIAW [Syn-xiamencin-53] | 14.8
89 | AGTEKIFQRLKKTIQEGKKIAKRAW [Syn-larvacin-7] | 5.61
90 | AGRQALTLYLKEELRKRGKKWFIAW [Syn-xiamencin-33] | 2.66
91 | AGKETIRQYLKNKWKKKGRKAVIAW [Syn-safencin-43] | 11.2
92 | AGRQALTLYLKEELRKRWKIAFKAW [Syn-xiamencin-22] | 2.21
93 | AGRQALTLELKEYLRKRWKKAFIAW [Syn-xiamencin-19] | 2.15
94 | WGKETIRQYLKNKIKKKGRKAVIAW [Syn-safencin-11] | 12.2
95 | AGKEKIRKKLKNEWKKKGRKAVIAW [Syn-safencin-48] | 1.75
96 | AGKETIRQKWKNEIKKKGRKAVIAW [Syn-safencin-39] | 0.72
97 | AGKEKIRKKWKNEIKKKGRKAVIAW [Syn-safencin-40] | 2.12
98 | AWAQRLTKELLEYLRKFGKIARKAW [Syn-xiamencin-31] | 4.82
99 | AGKETIRQYLKNKIKKKWRKAVIAW [Syn-safencin-51] | 6.36
100 | WGKKTIRQYLKNEIKKKGRKAVIAW [Syn-safencin-10] | 2.97
101 | AGKETIRWFLKKKIWEGKKRATIAW [Syn-larvacin-52] | 1.86
102 | AGKKTIRQYLKNEIKKKGRKAVWAW [Syn-safencin-74] | 3.51
103 | AWKETIRQFLKKTIQEKGKRAKIAW [Syn-larvacin-37] | 0.29
